In patent publication US12398107B2, “Fungicidal nitroanilino substituted pyrazoles” (FMC Corporation, priority 2018, dated 2025):

Tests used:
Assay type in all cases: in vivo
Botrytis cinerea = experiment: Test E: tomato Botrytis, preventive spray on tomato seedlings; settings: 50 ppm, 100 = 100% disease control, 0 = no control
Method in brief: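 Tomato seedlings sprayed to run-off with compound (ppm) in acetone/water with 250 ppm PEG400, then inoculated next day with B. cinerea spores. Held 48 h at 20 °C in saturated atmosphere, then 3 days at 24 °C. Visual rating 0–100% disease control relative to untreated controls.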

Septoria tritici = experiment: Test A: wheat leaf blotch, preventive spray on wheat seedlings; settings: 50 ppm, 100 = 100% disease control, 0 = no control relative to controls
Method in brief: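 Compounds were suspended in acetone/water (50/50) with 250 ppm PEG400 and sprayed to run-off on wheat seedlings. The next day the seedlings were inoculated with Septoria tritici spores, held 48 h at 24 °C in saturated humidity, then 17 days at 20 °C. Disease control was rated 0–100 relative to controls.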

Phakopsora pachyrhizi = experiment: Test D: Asian soybean rust, preventive spray on soybean seedlings; settings: 50 ppm, 100 = 100% disease control, 0 = no control
Method in brief: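 Soybean seedlings sprayed to run-off with compound suspension (ppm, in 50/50 acetone/water with 250 ppm PEG400), inoculated next day with P. pachyrhizi spores, held 24 h saturated at 22°C then 8 days at 22°C. Visual rating 0-100% disease control relative to controls.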

[1] = test system: Puccinia recondita f. sp. tritici; experiment: Test B: wheat leaf rust, preventive spray on wheat seedlings; settings: 50 ppm, 100 = 100% disease control, 0 = no control relative to controls
Method in brief: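 Compounds in acetone/water (50/50) with 250 ppm PEG400, sprayed to run-off on wheat seedlings at stated ppm; inoculated next day with P. recondita spores. Held 24 h saturated at 20° C., then 7 days in growth chamber at 20° C.; rating 0–100 = % disease control vs controls.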

[2] = test system: Blumeria graminis f. sp. tritici; experiment: Test C: wheat powdery mildew, preventive spray on wheat seedlings; settings: 50 ppm, rated after 8 days, 100 = 100% disease control, 0 = no control
Method in brief: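 Compound dissolved in acetone (3% of final volume), then suspended in 50/50 acetone/water with 250 ppm PEG400 and sprayed to run-off on wheat seedlings. Inoculated next day with B. graminis f. sp. tritici spore dust, kept 8 days at 20° C; visual rating, 100 = full control, 0 = none, relative to controls.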

Alternaria solani = experiment: Test F: tomato early blight, preventive spray on tomato seedlings; settings: 50 ppm, 100 = 100% disease control, 0 = no control
Method in brief: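 Compounds in acetone/water (50/50) with 250 ppm PEG400, dosed in ppm, sprayed to run-off on tomato seedlings; next day inoculated with A. solani spores. Held 48 h saturated at 27° C, then 3 days at 20° C; visual rating 0–100% disease control relative to controls.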

Structure (SMILES): Cc1nn(C)c(Nc2c(Cl)cc(F)cc2[N+](=O)[O-])c1-c1c(F)cccc1Cl [Compound 49]
- Test E disease control rating (tomato Botrytis) (Botrytis cinerea): 94%
- Test A disease control rating (wheat leaf blotch) (Septoria tritici): 100%
- Test D disease control rating (Asian soybean rust) (Phakopsora pachyrhizi): 25%
- Test B disease control rating (wheat leaf rust) [1]: 100%
- Test C disease control rating (wheat powdery mildew) [2]: 95%
- Test F disease control rating (tomato early blight) (Alternaria solani): 26%

Structure (SMILES): Cc1nn(C)c(Nc2c(F)cc(I)cc2[N+](=O)[O-])c1-c1ccc(F)cc1Cl [Compound 47]
- Test E disease control rating (tomato Botrytis) (Botrytis cinerea): 95%
- Test A disease control rating (wheat leaf blotch) (Septoria tritici): 100%
- Test D disease control rating (Asian soybean rust) (Phakopsora pachyrhizi): 92%
- Test B disease control rating (wheat leaf rust) [1]: 97%
- Test C disease control rating (wheat powdery mildew) [2]: 89%
- Test F disease control rating (tomato early blight) (Alternaria solani): 96%

Structure (SMILES): Cc1nn(C)c(Nc2c(Cl)cc(Cl)cc2[N+](=O)[O-])c1-c1ccc(Cl)cc1Cl [Compound 146]
- Test E disease control rating (tomato Botrytis) (Botrytis cinerea): 0%
- Test A disease control rating (wheat leaf blotch) (Septoria tritici): 97%
- Test D disease control rating (Asian soybean rust) (Phakopsora pachyrhizi): 0%
- Test B disease control rating (wheat leaf rust) [1]: 98%
- Test C disease control rating (wheat powdery mildew) [2]: 0%
- Test F disease control rating (tomato early blight) (Alternaria solani): 40%

Structure (SMILES): CCc1nn(C)c(Nc2c(F)cc(C)cc2[N+](=O)[O-])c1-c1ccc(F)cc1Cl [Compound 137]
- Test E disease control rating (tomato Botrytis) (Botrytis cinerea): 99%
- Test A disease control rating (wheat leaf blotch) (Septoria tritici): 100%
- Test D disease control rating (Asian soybean rust) (Phakopsora pachyrhizi): 91%
- Test B disease control rating (wheat leaf rust) [1]: 100%
- Test C disease control rating (wheat powdery mildew) [2]: 100%
- Test F disease control rating (tomato early blight) (Alternaria solani): 99%

Structure (SMILES): Cc1cc(F)c(Nc2c(-c3ccc(Cl)cc3Cl)c(C)nn2C)c([N+](=O)[O-])c1 [Compound 143]
- Test E disease control rating (tomato Botrytis) (Botrytis cinerea): 99%
- Test A disease control rating (wheat leaf blotch) (Septoria tritici): 99%
- Test D disease control rating (Asian soybean rust) (Phakopsora pachyrhizi): 87%
- Test B disease control rating (wheat leaf rust) [1]: 100%
- Test C disease control rating (wheat powdery mildew) [2]: 96%
- Test F disease control rating (tomato early blight) (Alternaria solani): 100%

Structure (SMILES): Cc1nn(C)c(Nc2ccc(OC(C)C)cc2[N+](=O)[O-])c1-c1ccc(F)cc1Cl [Compound 104]
- Test E disease control rating (tomato Botrytis) (Botrytis cinerea): 0%
- Test A disease control rating (wheat leaf blotch) (Septoria tritici): 60%
- Test D disease control rating (Asian soybean rust) (Phakopsora pachyrhizi): 0%
- Test B disease control rating (wheat leaf rust) [1]: 0%
- Test C disease control rating (wheat powdery mildew) [2]: 72%
- Test F disease control rating (tomato early blight) (Alternaria solani): 0%

Structure (SMILES): COc1cc(Cl)c(Nc2c(-c3ccc(F)cc3F)c(C)nn2C)c([N+](=O)[O-])c1 [Compound 141]
- Test E disease control rating (tomato Botrytis) (Botrytis cinerea): 99%
- Test A disease control rating (wheat leaf blotch) (Septoria tritici): 99%
- Test D disease control rating (Asian soybean rust) (Phakopsora pachyrhizi): 0%
- Test B disease control rating (wheat leaf rust) [1]: 100%
- Test C disease control rating (wheat powdery mildew) [2]: 99%
- Test F disease control rating (tomato early blight) (Alternaria solani): 83%

Structure (SMILES): CCc1nn(C)c(Nc2c(Cl)cccc2[N+](=O)[O-])c1-c1ccc(F)cc1F [Compound 17]
- Test E disease control rating (tomato Botrytis) (Botrytis cinerea): 99%
- Test A disease control rating (wheat leaf blotch) (Septoria tritici): 100%
- Test D disease control rating (Asian soybean rust) (Phakopsora pachyrhizi): 0%
- Test B disease control rating (wheat leaf rust) [1]: 92%
- Test C disease control rating (wheat powdery mildew) [2]: 94%
- Test F disease control rating (tomato early blight) (Alternaria solani): 9%

Structure (SMILES): Cc1nn(C)c(Nc2c(F)cccc2[N+](=O)[O-])c1-c1c(F)cc(F)cc1F [Compound 62]
- Test E disease control rating (tomato Botrytis) (Botrytis cinerea): 99%
- Test A disease control rating (wheat leaf blotch) (Septoria tritici): 100%
- Test D disease control rating (Asian soybean rust) (Phakopsora pachyrhizi): 100%
- Test B disease control rating (wheat leaf rust) [1]: 100%
- Test C disease control rating (wheat powdery mildew) [2]: 100%
- Test F disease control rating (tomato early blight) (Alternaria solani): 99%

Structure (SMILES): Cc1nn(C)c(Nc2c(F)cc(Br)cc2[N+](=O)[O-])c1-c1ccc(Cl)cc1Cl [Compound 132]
- Test E disease control rating (tomato Botrytis) (Botrytis cinerea): 99%
- Test A disease control rating (wheat leaf blotch) (Septoria tritici): 100%
- Test D disease control rating (Asian soybean rust) (Phakopsora pachyrhizi): 0%
- Test B disease control rating (wheat leaf rust) [1]: 98%
- Test C disease control rating (wheat powdery mildew) [2]: 47%
- Test F disease control rating (tomato early blight) (Alternaria solani): 96%
